Results as given in PubChem BioAssay AID2060901 (Molecular Pharmacology Branch, DTP, NCI, 2025).

Test system: 422866-222-R5-J1-PDC complex spheroids viability
Test: Anticancer human tumor 422866-222-R5-J1-PDC patient-derived pancreatic adenocarcinoma cell line growth inhibition [RAS]
Settings: for IC50: curve of first compound; for viability, T/C: stronger effect = lower value
In short: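 Multi-cell-type spheroids: tumor cells plus HUVEC endothelial cells and mesenchymal stem cells. RAS-pathway inhibitors were combined with targeted agents, each dosed in half-log steps down from clinical Cmax, or from 10 microM when Cmax was unknown.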
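Note: spheroids exposed to compounds for 7 days.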
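Throughout, for viability, T/C: 100% = DMSO vehicle control viability.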

Question: With CC1(O)CCCC1n1c(=O)c(C(F)F)cc2cnc(NC3CCN(S(C)(=O)=O)CC3)nc21 (centres undefined) + CCn1c(-c2cc(N3CCN(C)CC3)cnc2C(C)OC)c2c3cc(ccc31)-c1csc(n1)CC(NC(=O)C1CC1C)C(=O)N1CCCC(N1)C(=O)OCC(C)(C)C2 as the compound, how does the IC50 (second compound 0.000949 µM) read?
Answer: < 31.6 nM

Question: And the IC50 (second compound 0.003 µM)?
Answer: < 31.6 nM

Question: What about the IC50 (second compound 0.00949 µM) of the same compound?
Answer: < 31.6 nM

Question: What about the IC50 (second compound 0.03 µM) of the same compound?
Answer: < 31.6 nM

Question: What about the IC50 (second compound 0.0949 µM) of the same compound?
Answer: < 31.6 nM

Question: What about the IC50 (second compound 0.3 µM) of the same compound?
Answer: < 31.6 nM

Question: What about the viability, T/C (second compound 0.000949 µM, first compound 0.0316 µM) of the same compound?
Answer: 30%

Question: What about the viability, T/C (second compound 0.000949 µM, first compound 0.1 µM) of the same compound?
Answer: 30.3%

Question: What about the viability, T/C (second compound 0.000949 µM, first compound 0.316 µM) of the same compound?
Answer: 34.5%

Question: What about the viability, T/C (second compound 0.000949 µM, first compound 1 µM) of the same compound?
Answer: 34%

Question: What about the viability, T/C (second compound 0.000949 µM, first compound 3.16 µM) of the same compound?
Answer: 38%

Question: What about the viability, T/C (second compound 0.000949 µM, first compound 10 µM) of the same compound?
Answer: 40.2%

Question: What about the viability, T/C (second compound 0.003 µM, first compound 0.0316 µM) of the same compound?
Answer: 27.9%

Question: And the viability, T/C (second compound 0.003 µM, first compound 0.1 µM)?
Answer: 25.8%

Question: What about the viability, T/C (second compound 0.003 µM, first compound 0.316 µM) of the same compound?
Answer: 26.4%

Question: And the viability, T/C (second compound 0.003 µM, first compound 1 µM)?
Answer: 30.1%

Question: And the viability, T/C (second compound 0.003 µM, first compound 3.16 µM)?
Answer: 32.5%

Question: What about the viability, T/C (second compound 0.003 µM, first compound 10 µM) of the same compound?
Answer: 49.2%

Question: What about the viability, T/C (second compound 0.00949 µM, first compound 0.0316 µM) of the same compound?
Answer: 23%

Question: And the viability, T/C (second compound 0.00949 µM, first compound 0.1 µM)?
Answer: 20.7%

Question: What about the viability, T/C (second compound 0.00949 µM, first compound 0.316 µM) of the same compound?
Answer: 22.4%

Question: What about the viability, T/C (second compound 0.00949 µM, first compound 1 µM) of the same compound?
Answer: 23.3%

Question: And the viability, T/C (second compound 0.00949 µM, first compound 3.16 µM)?
Answer: 26%

Question: And the viability, T/C (second compound 0.00949 µM, first compound 10 µM)?
Answer: 28.8%

Question: And the viability, T/C (second compound 0.03 µM, first compound 0.0316 µM)?
Answer: 18.8%

Question: What about the viability, T/C (second compound 0.03 µM, first compound 0.1 µM) of the same compound?
Answer: 19.8%

Question: What about the viability, T/C (second compound 0.03 µM, first compound 0.316 µM) of the same compound?
Answer: 22.8%

Question: And the viability, T/C (second compound 0.03 µM, first compound 1 µM)?
Answer: 20.4%

Question: What about the viability, T/C (second compound 0.03 µM, first compound 3.16 µM) of the same compound?
Answer: 29.8%

Question: What about the viability, T/C (second compound 0.03 µM, first compound 10 µM) of the same compound?
Answer: 44.2%

Question: What about the viability, T/C (second compound 0.0949 µM, first compound 0.0316 µM) of the same compound?
Answer: 19.3%

Question: And the viability, T/C (second compound 0.0949 µM, first compound 0.1 µM)?
Answer: 22.8%

Question: And the viability, T/C (second compound 0.0949 µM, first compound 0.316 µM)?
Answer: 21.2%

Question: And the viability, T/C (second compound 0.0949 µM, first compound 1 µM)?
Answer: 24%

Question: And the viability, T/C (second compound 0.0949 µM, first compound 3.16 µM)?
Answer: 24.9%

Question: And the viability, T/C (second compound 0.0949 µM, first compound 10 µM)?
Answer: 47%

Question: And the viability, T/C (second compound 0.3 µM, first compound 0.0316 µM)?
Answer: 18.9%

Question: What about the viability, T/C (second compound 0.3 µM, first compound 0.1 µM) of the same compound?
Answer: 21.1%

Question: What about the viability, T/C (second compound 0.3 µM, first compound 0.316 µM) of the same compound?
Answer: 23.3%

Question: And the viability, T/C (second compound 0.3 µM, first compound 1 µM)?
Answer: 22.4%

Question: And the viability, T/C (second compound 0.3 µM, first compound 3.16 µM)?
Answer: 29.6%

Question: And the viability, T/C (second compound 0.3 µM, first compound 10 µM)?
Answer: 50.5%

Question: What does the source list for CCc1c2c(nc3ccc(O)cc13)-c1cc3c(c(=O)n1C2)COC(=O)[C@]3(O)CC + CCn1c(-c2cc(N3CCN(C)CC3)cnc2C(C)OC)c2c3cc(ccc31)-c1csc(n1)CC(NC(=O)C1CC1C)C(=O)N1CCCC(N1)C(=O)OCC(C)(C)C2?
Answer: IC50 (second compound 0.000949 µM): < 0.949 nM; IC50 (second compound 0.003 µM): < 0.949 nM; IC50 (second compound 0.00949 µM): < 0.949 nM; IC50 (second compound 0.03 µM): < 0.949 nM; IC50 (second compound 0.0949 µM): < 0.949 nM; IC50 (second compound 0.3 µM): < 0.949 nM; viability, T/C (second compound 0.000949 µM, first compound 0.000949 µM): 25.3%; viability, T/C (second compound 0.000949 µM, first compound 0.003 µM): 20.3%; viability, T/C (second compound 0.000949 µM, first compound 0.00949 µM): 21.6%; viability, T/C (second compound 0.000949 µM, first compound 0.03 µM): 19.5%; viability, T/C (second compound 0.000949 µM, first compound 0.0949 µM): 17.7%; viability, T/C (second compound 0.000949 µM, first compound 0.3 µM): 12.6%; viability, T/C (second compound 0.003 µM, first compound 0.000949 µM): 22.5%; viability, T/C (second compound 0.003 µM, first compound 0.003 µM): 17%; viability, T/C (second compound 0.003 µM, first compound 0.00949 µM): 15.4%; viability, T/C (second compound 0.003 µM, first compound 0.03 µM): 16.7%; viability, T/C (second compound 0.003 µM, first compound 0.0949 µM): 14.1%; viability, T/C (second compound 0.003 µM, first compound 0.3 µM): 8.32%; viability, T/C (second compound 0.00949 µM, first compound 0.000949 µM): 18.9%; viability, T/C (second compound 0.00949 µM, first compound 0.003 µM): 14.7%; viability, T/C (second compound 0.00949 µM, first compound 0.00949 µM): 13.8%; viability, T/C (second compound 0.00949 µM, first compound 0.03 µM): 13.2%; viability, T/C (second compound 0.00949 µM, first compound 0.0949 µM): 11.3%; viability, T/C (second compound 0.00949 µM, first compound 0.3 µM): 7.61%; viability, T/C (second compound 0.03 µM, first compound 0.000949 µM): 16.6%; viability, T/C (second compound 0.03 µM, first compound 0.003 µM): 15.6%; viability, T/C (second compound 0.03 µM, first compound 0.00949 µM): 14.6%; viability, T/C (second compound 0.03 µM, first compound 0.03 µM): 12.8%; viability, T/C (second compound 0.03 µM, first compound 0.0949 µM): 10%; viability, T/C (second compound 0.03 µM, first compound 0.3 µM): 6.17%; viability, T/C (second compound 0.0949 µM, first compound 0.000949 µM): 17%; viability, T/C (second compound 0.0949 µM, first compound 0.003 µM): 15%; viability, T/C (second compound 0.0949 µM, first compound 0.00949 µM): 13.8%; viability, T/C (second compound 0.0949 µM, first compound 0.03 µM): 12.5%; viability, T/C (second compound 0.0949 µM, first compound 0.0949 µM): 9.66%; viability, T/C (second compound 0.0949 µM, first compound 0.3 µM): 6.78%; viability, T/C (second compound 0.3 µM, first compound 0.000949 µM): 16.2%; viability, T/C (second compound 0.3 µM, first compound 0.003 µM): 15.7%; viability, T/C (second compound 0.3 µM, first compound 0.00949 µM): 16.8%; viability, T/C (second compound 0.3 µM, first compound 0.03 µM): 12.8%; viability, T/C (second compound 0.3 µM, first compound 0.0949 µM): 10.1%; viability, T/C (second compound 0.3 µM, first compound 0.3 µM): 5.7%

Question: With CCc1c2c(nc3ccc(O)cc13)-c1cc3c(c(=O)n1C2)COC(=O)[C@]3(O)CC as the compound, how does the viability, T/C (compound 0.000949 µM) read?
Answer: 77.2% [middle of 4 runs]

Question: What about the viability, T/C (compound 0.003 µM) of the same compound?
Answer: 51.2% [middle of 4 runs]

Question: And the viability, T/C (compound 0.00949 µM)?
Answer: 51.5% [middle of 4 runs]

Question: What about the viability, T/C (compound 0.03 µM) of the same compound?
Answer: 53.4% [middle of 4 runs]

Question: What about the viability, T/C (compound 0.3 µM) of the same compound?
Answer: 41.4% [middle of 4 runs]
